Source: PMC6843832, “Synthesis of Novel Analogs of Thieno[2,3-d] Pyrimidin-4(3H)-ones as Selective Inhibitors of Cancer Cell Growth” (Biomolecules, 2019)
Where two headings read alike, the source gives them in different places.

What was measured:
PC-3 cells = test: MTT assay, PC-3 cells; assay type: cell-based; conditions: human prostate cancer cells, 72 h, read-out: Cytotoxic activity (IC50) PC-3
Experimental: (§1) Primary human liver HL-7702 cells were purchased from SIBS (Shanghai Institutes for Biological Sciences, Shanghai, China) while MCF-7, A549, PC-9 and PC-3 cells were from ATCC (American Type Culture Collection, Rockville, MD, USA). HL-7702, PC-9 and A549 cells were incubated with Roswell Park Memorial Institute (RPMI) 1640 medium and MCF-7 were cultured in Dulbecco’s Modified Eagle’s Medium (DMEM) supplemented with 10% heat-inactivated fetal bovine serum (FBS) and 1% antibiotics (penicillin and streptomycin). PC-3, a human prostate adenocarcinoma cell, was maintained in Ham’s F-12 Medium supplemented with 10% FBS, 1% penicillin/streptomycin and 1% glutamine. All cells were cultured at 37 °C in an incubator containing 5% CO2. The cell viability was determined by using the MTT (methyl thiazolyl tetrazolium bromide) assay. Briefly, cells were seeded in 96-well plates (4 × 10^3 cells/well) overnight and exposed to the synthesized compounds with various concentrations. Camptothecin and dimethyl sulfoxide (DMSO) served as a positive control and a negative control respectively. After 72 h of incubation, 20 μL of MTT (5 mg/mL in phosphate buffer saline (PBS)) were added into each well. Dissolved yellowish MTT is converted to an insoluble purple formazan during incubation (4 h). In order to dissolve the formazan crystals, 100 μL of lysis solution (10% SDS (sodium dodecyl sulfate)-5% isobutyl alcohol-0.01M HCl) was added into per well. Finally, the optical density (OD) of solution in the plates was measured using a microplate reader at 570 nm after dissolving overnight. Cell viability was calculated by using the following formula: […].

PC-9 cells = test: MTT assay, PC-9 cells; assay type: cell-based; conditions: human non-small cell lung cancer cells, 72 h, read-out: Cytotoxic activity (IC50) PC-9
Experimental: as §1

MCF-7 cells = test: MTT assay, MCF-7 cells; assay type: cell-based; conditions: MCF7, human breast cancer cells, 72 h, read-out: Cytotoxic activity (IC50) MCF-7
Experimental: as §1

MTT assay, HL-7702 cells = assay type: cell-based, human; conditions: HL-7702 cells (normal liver cells); normal human liver cells, MTT, 72 h; read-out: Cytotoxic activity (IC50) HL-7702
Experimental: as §1

A549 cells = test: MTT assay, A549 cells; assay type: cell-based; conditions: human non-small cell lung cancer cells, read-out: Cytotoxic activity (IC50) A549
Experimental: as §1

CC[C@@]1(O)C(=O)OCc2c1cc1n(c2=O)Cc2cc3ccccc3nc2-1 [CAMPTOTHECIN, camptothecin, reference compound]
IC50 (PC-3 cells): 0.85 ± 0.01 µM
IC50 (PC-9 cells): 0.09 ± 0.01 µM
IC50 (MCF-7 cells): 0.26 ± 0.05 µM
IC50 at 72 h (MTT assay, HL-7702 cells): 0.11 ± 0.03 µM
IC50 (A549 cells; Homo sapiens, A549, 72 h): 0.1 ± 0.02 µM

O=c1c2c3c(sc2nc(-c2ccc(Cl)cc2)n1Cc1ccccc1)CCCC3 [Compound 1]
IC50 (PC-3 cells): > 100 µM
IC50 (PC-9 cells): > 100 µM
IC50 (MCF-7 cells): > 100 µM
IC50 at 72 h (MTT assay, HL-7702 cells): > 100 µM
IC50 (A549 cells; Homo sapiens, A549, 72 h): > 100 µM

O=c1c2c3c(sc2nc(-c2ccccc2)n1Cc1ccccc1)CCCC3 [Compound 2]
IC50 (PC-3 cells): > 100 µM
IC50 (PC-9 cells): > 100 µM
IC50 (MCF-7 cells): > 100 µM
IC50 at 72 h (MTT assay, HL-7702 cells): > 100 µM
IC50 (A549 cells; Homo sapiens, A549, 72 h): > 100 µM

Cc1ccc(-c2nc3sc4c(c3c(=O)n2Cc2ccccc2)CCCC4)o1 [Compound 3]
IC50 (PC-3 cells): 92.9 ± 2.29 µM
IC50 (PC-9 cells): 86.1 ± 1.28 µM
IC50 (MCF-7 cells): > 100 µM
IC50 at 72 h (MTT assay, HL-7702 cells): 55.17 ± 0.5 µM
IC50 (A549 cells; Homo sapiens, A549, 72 h): 54.4 ± 1.83 µM

O=c1c2c3c(sc2nc(-c2ccc(C(F)(F)F)c(C(F)(F)F)c2)n1Cc1ccccc1)CCCC3 [Compound 4]
IC50 (PC-3 cells): > 100 µM
IC50 (PC-9 cells): > 100 µM
IC50 (MCF-7 cells): 24.7 ± 2.04 µM
IC50 at 72 h (MTT assay, HL-7702 cells): > 100 µM
melting point: 161 to 163 °C
IC50 (A549 cells; Homo sapiens, A549, 72 h): 58.2 ± 0.65 µM

Cc1cc(-c2nc3sc4c(c3c(=O)n2Cc2ccccc2)CCCC4)sc1C [Compound 6]
IC50 (PC-3 cells): > 100 µM
IC50 (PC-9 cells): > 100 µM
IC50 (MCF-7 cells): 59.86 ± 0.34 µM
IC50 at 72 h (MTT assay, HL-7702 cells): > 100 µM
IC50 (A549 cells; Homo sapiens, A549, 72 h): 17.4 ± 0.88 µM

O=c1c2c3c(sc2nc(-c2ccc(F)cc2)n1CCc1ccc(O)cc1)CCCC3 [Compound 7]
IC50 (PC-3 cells): > 100 µM
IC50 (PC-9 cells): 44.8 ± 4.47 µM
IC50 (MCF-7 cells): 10.4 ± 1.32 µM
IC50 at 72 h (MTT assay, HL-7702 cells): > 100 µM
IC50 (A549 cells; Homo sapiens, A549, 72 h): < 10 µM
IC50 (A549 cells; 72 h): 6.86 ± 0.98 µM

Cc1cc(-c2nc3sc4c(c3c(=O)n2CCc2ccc(O)cc2)CCCC4)sc1C [Compound 8]
IC50 (PC-3 cells): 87.75 ± 0.63 µM
IC50 (PC-9 cells): 92.97 ± 0.52 µM
IC50 (MCF-7 cells): > 100 µM
IC50 at 72 h (MTT assay, HL-7702 cells): > 100 µM
IC50 (A549 cells; Homo sapiens, A549, 72 h): 50.92 ± 0.07 µM

Cc1ccc(-c2nc3sc4c(c3c(=O)n2CCc2ccc(O)cc2)CCCC4)cc1 [Compound 10]
IC50 (PC-3 cells): 43.4 ± 2.73 µM
IC50 (PC-9 cells): 49.7 ± 2.27 µM
IC50 (MCF-7 cells): 27.47 ± 0.02 µM
IC50 at 72 h (MTT assay, HL-7702 cells): > 100 µM
IC50 (A549 cells; Homo sapiens, A549, 72 h): < 10 µM
IC50 (A549 cells; 72 h): 8.51 ± 0.16 µM

O=c1c2c3c(sc2nc(-c2cccs2)n1CCc1ccc(O)cc1)CCCC3 [Compound 12]
IC50 (PC-3 cells): 21.9 ± 1.76 µM
IC50 (PC-9 cells): 54.2 ± 2.06 µM
IC50 (MCF-7 cells): 36.4 ± 1.41 µM
IC50 at 72 h (MTT assay, HL-7702 cells): > 100 µM
IC50 (A549 cells; Homo sapiens, A549, 72 h): 11.7 ± 0.12 µM

Cc1cc(-c2nc3sc4c(c3c(=O)n2Cc2ccccc2)CCCCC4)sc1C [Compound 13]
IC50 (PC-3 cells): 92.5 ± 1.89 µM
IC50 (PC-9 cells): > 100 µM
IC50 (MCF-7 cells): 75.94 ± 0.17 µM
IC50 at 72 h (MTT assay, HL-7702 cells): > 100 µM
IC50 (A549 cells; Homo sapiens, A549, 72 h): 49.86 ± 0.3 µM

Cc1ccc(-c2nc3sc4c(c3c(=O)n2Cc2ccccc2)CCCCC4)o1 [Compound 18]
IC50 (PC-3 cells): 92 ± 2.34 µM
IC50 (PC-9 cells): 58.28 ± 0.18 µM
IC50 (MCF-7 cells): 96.36 ± 0.72 µM
IC50 at 72 h (MTT assay, HL-7702 cells): > 100 µM
IC50 (A549 cells; Homo sapiens, A549, 72 h): 63.2 ± 0.03 µM

O=c1c2c3c(sc2nc(-c2ccc(Cl)cc2)n1CCc1ccc(O)cc1)CCCCC3 [Compound 19]
IC50 (PC-3 cells): 25.1 ± 0.37 µM
IC50 (PC-9 cells): 26.7 ± 1.38 µM
IC50 (MCF-7 cells): 13.04 ± 0.11 µM
IC50 at 72 h (MTT assay, HL-7702 cells): 19.16 ± 0.06 µM
IC50 (A549 cells; Homo sapiens, A549, 72 h): < 10 µM
IC50 (A549 cells; 72 h): 6.26 ± 0.87 µM

Cc1sc2nc(-c3ccc(F)cc3)n(Cc3ccccc3)c(=O)c2c1C [Compound 21]
IC50 (PC-3 cells): > 100 µM
IC50 (PC-9 cells): > 100 µM
IC50 (MCF-7 cells): > 100 µM
IC50 at 72 h (MTT assay, HL-7702 cells): > 100 µM
IC50 (A549 cells; Homo sapiens, A549, 72 h): > 100 µM

Cc1sc2nc(-c3ccc(Cl)cc3)n(CCc3ccc(O)cc3)c(=O)c2c1C [Compound 23]
IC50 (PC-3 cells): > 100 µM
IC50 (PC-9 cells): > 100 µM
IC50 (MCF-7 cells): 70.64 ± 0.59 µM
IC50 at 72 h (MTT assay, HL-7702 cells): > 100 µM
IC50 (A549 cells; Homo sapiens, A549, 72 h): 46.14 ± 0.17 µM

Cc1ccc(-c2nc3sc4c(c3c(=O)n2CCc2ccc(O)cc2)CCOC4)cc1 [Compound 24]
IC50 (PC-3 cells): > 100 µM
IC50 (PC-9 cells): > 100 µM
IC50 (MCF-7 cells): > 100 µM
IC50 at 72 h (MTT assay, HL-7702 cells): > 100 µM
IC50 (A549 cells; Homo sapiens, A549, 72 h): 32.9 ± 1.84 µM

O=c1c2c3c(sc2nc(-c2cccc(Cl)c2)n1Cc1ccccc1)COCC3 [Compound 25]
IC50 (PC-3 cells): 94.2 ± 1.83 µM
IC50 (PC-9 cells): > 100 µM
IC50 (MCF-7 cells): > 100 µM
IC50 at 72 h (MTT assay, HL-7702 cells): > 100 µM
IC50 (A549 cells; Homo sapiens, A549, 72 h): 44 ± 0.71 µM
